Measurements reported in patent publication US20260262643A1, “HERBICIDAL BENZOXAZINES” (FMC CORPORATION, priority 2022, published 2026).

How the values were obtained:
[1] = system: ryegrass, Italian; test: Test A preemergence; format: in vivo, Lolium multiflorum
How it was run: (§1)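 Visual injury ratings on a 0–100 scale (100 = complete control) versus untreated controls, taken 10 days after treatment in greenhouse. Preemergence: directed soil spray onto seeded loam/sand. Postemergence: foliar application at one- to two-leaf stage, plants 2–10 cm. Formulation: non-phytotoxic solvent plus surfactant.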

[2] = system: foxtail, giant; test: Test A postemergence; format: in vivo, Setaria faberi; settings: postemergence, 10 days
How it was run: as §1

[3] = system: oat, wild; test: Test A postemergence; format: in vivo, Avena fatua; settings: postemergence, 10 days
How it was run: as §1

[4] = system: kochia; test: Test A preemergence; format: in vivo, Bassia scoparia
How it was run: as §1

[5] = system: horseweed; test: Test A postemergence; format: in vivo, Erigeron canadensis; settings: postemergence, 10 days
How it was run: as §1

[6] = system: sedge, umbrella; test: Test B flooded paddy test; format: in vivo, Cyperus difformis; settings: 250 g ai/ha, Flood, 13 days, 0 to 100 scale (0 no effect, 100 complete control)
How it was run: (§2)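 Each species was raised to the 2-leaf stage. At treatment, each pot received floodwater 3 cm deep, with the chemical delivered into the water. Greenhouse holding followed for 13 days, then percent control was estimated visually versus untreated pots.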

[7] = system: soybean; test: Test A preemergence; format: in vivo, Glycine max
How it was run: as §1

[8] = system: blackgrass; test: Test A preemergence; format: in vivo, Alopecurus myosuroides
How it was run: as §1

[9] = system: goosegrass; test: Test A postemergence; format: in vivo, Eleusine indica; settings: postemergence, 10 days
How it was run: as §1

[10] = system: wheat; test: Test A postemergence; format: in vivo, Triticum aestivum; settings: postemergence, 10 days
How it was run: as §1

[11] = system: soybean; test: Test A postemergence; format: in vivo, Glycine max; settings: postemergence, 10 days
How it was run: as §1

[12] = system: foxtail, giant; test: Test A preemergence; format: in vivo, Setaria faberi
How it was run: as §1

[13] = system: corn; test: Test A postemergence; format: in vivo, Zea mays; settings: postemergence, 10 days
How it was run: as §1

[14] = system: wheat; test: Test A preemergence; format: in vivo, Triticum aestivum
How it was run: as §1

[15] = system: pigweed, palmer; test: Test A preemergence; format: in vivo, Amaranthus palmeri
How it was run: as §1

[16] = system: goosegrass; test: Test A preemergence; format: in vivo, Eleusine indica
How it was run: as §1

[17] = system: ducksalad; test: Test B flooded paddy test; format: in vivo, Heteranthera limosa; settings: 250 g ai/ha, Flood, 13 days, 0 to 100 scale (0 no effect, 100 complete control)
How it was run: as §2

[18] = system: ryegrass, Italian; test: Test A postemergence; format: in vivo, Lolium multiflorum; settings: postemergence, 10 days
How it was run: as §1

[19] = system: pigweed, palmer; test: Test A postemergence; format: in vivo, Amaranthus palmeri; settings: postemergence, 10 days
How it was run: as §1

[20] = system: blackgrass; test: Test A postemergence; format: in vivo, Alopecurus myosuroides; settings: postemergence, 10 days
How it was run: as §1

[21] = system: rice; test: Test B flooded paddy test; format: in vivo, Oryza sativa; settings: 250 g ai/ha, Flood, 13 days, 0 to 100 scale (0 no effect, 100 complete control)
How it was run: as §2

[22] = system: corn; test: Test A preemergence; format: in vivo, Zea mays
How it was run: as §1

[23] = system: barnyardgrass; test: Test B flooded paddy test; format: in vivo, Echinochloa crus-galli; settings: 250 g ai/ha, Flood, 13 days, 0 to 100 scale (0 no effect, 100 complete control)
How it was run: as §2

[24] = system: galium; test: Test A postemergence; format: in vivo, Galium aparine; settings: postemergence, 10 days
How it was run: as §1

[25] = system: ragweed; test: Test A postemergence; format: in vivo, Ambrosia artemisiifolia; settings: postemergence, 10 days
How it was run: as §1

[26] = system: oat, wild; test: Test A preemergence; format: in vivo, Avena fatua
How it was run: as §1

[27] = system: kochia; test: Test A postemergence; format: in vivo, Bassia scoparia; settings: postemergence, 10 days
How it was run: as §1

[28] = system: ragweed; test: Test A preemergence; format: in vivo, Ambrosia artemisiifolia
How it was run: as §1

[29] = 125 g ai/ha, visual injury after 10 days, 0 to 100 scale, 0 is no effect, 100 is complete control
[30] = 500 g ai/ha, 0 to 100 scale (0 no effect, 100 complete control), 10 days
[31] = 125 g ai/ha, 0 to 100 scale, 0 no effect, 100 complete control
[32] = 500 g ai/ha, visual injury, 0 to 100 scale (0 no effect, 100 complete control)

Compound: Cc1ccc(-n2cnc(C(C)C)n2)cc1C(=O)N1C[C@H](C)Oc2c(C)cccc21 [Compound 99]
- Plant response rating, Ryegrass, Italian [1, 29]: 90
- Plant response rating, Ryegrass, Italian [1, 30]: 100
- Foxtail, Giant plant response rating [2, 31]: 90
- Plant response rating, Foxtail, Giant [2, 32]: 90
- Oat, Wild plant response rating [3, 31]: 70
- Plant response rating, Oat, Wild [3, 32]: 90
- Plant response rating, Kochia [4, 29]: 100
- Plant response rating, Kochia [4, 30]: 100
- Horseweed plant response rating [5, 31]: 70
- Plant response rating, Horseweed [5, 32]: 80
- Plant response rating, Sedge, Umbrella [6]: 95
- Plant response rating, Soybean [7, 29]: 80
- Plant response rating, Soybean [7, 30]: 100
- Plant response rating, Blackgrass [8, 29]: 80
- Plant response rating, Blackgrass [8, 30]: 90
- Goosegrass plant response rating [9, 31]: 90
- Plant response rating, Goosegrass [9, 32]: 100
- Wheat plant response rating [10, 31]: 80
- Plant response rating, Wheat [10, 32]: 90
- Soybean plant response rating [11, 31]: 100
- Plant response rating, Soybean [11, 32]: 100
- Plant response rating, Foxtail, Giant [12, 29]: 100
- Plant response rating, Foxtail, Giant [12, 30]: 100
- Corn plant response rating [13, 31]: 70
- Plant response rating, Corn [13, 32]: 90
- Plant response rating, Wheat [14, 29]: 30
- Plant response rating, Wheat [14, 30]: 80
- Plant response rating, Pigweed, Palmer [15, 29]: 100
- Plant response rating, Pigweed, Palmer [15, 30]: 100
- Plant response rating, Goosegrass [16, 29]: 100
- Plant response rating, Goosegrass [16, 30]: 100
- Plant response rating, Ducksalad [17]: 40
- Ryegrass, Italian plant response rating [18, 31]: 50
- Plant response rating, Ryegrass, Italian [18, 32]: 100
- Pigweed, Palmer plant response rating [19, 31]: 90
- Plant response rating, Pigweed, Palmer [19, 32]: 100
- Blackgrass plant response rating [20, 31]: 90
- Plant response rating, Blackgrass [20, 32]: 90
- Plant response rating, Rice [21]: 10
- Plant response rating, Corn [22, 29]: 10
- Plant response rating, Corn [22, 30]: 50
- Plant response rating, Barnyardgrass [23]: 35
- Galium plant response rating [24, 31]: 100
- Plant response rating, Galium [24, 32]: 100
- Ragweed plant response rating [25, 31]: 40
- Plant response rating, Ragweed [25, 32]: 90
- Plant response rating, Oat, Wild [26, 29]: 70
- Plant response rating, Oat, Wild [26, 30]: 90
- Kochia plant response rating [27, 31]: 80
- Plant response rating, Kochia [27, 32]: 90
- Plant response rating, Ragweed [28, 29]: 40
- Plant response rating, Ragweed [28, 30]: 80
